Experimental findings from PMC10120462, “Styrylquinazoline derivatives as ABL inhibitors selective for different DFG orientations” (Journal of Enzyme Inhibition and Medicinal Chemistry, 2023) are described below.

One experiment deals with U-251. Description: Cytotoxicity studies (MTS), antiproliferative activity. The settings on record: Homo sapiens, U-251; 72 h, MTS. It is filed as cell-based, human. The text has this:
(§1) In contrast, the other cell lines studied represent common cancers found in the human population. Nevertheless, these cell lines are characterised by a different landscape of kinase expression, as reported in[36]. In chronic leukaemia cells, an aberration of the Philadelphia chromosome is common in which a fragment of chromosome 9 is displaced to chromosome 22, leading to the formation of the oncogenic protein BCR-ABL. The altered structure of the protein leads to abnormal activity that promotes excessive growth and differentiation of cells even in the absence of growth factors, as well as inhibition of apoptosis and formation of metastases. Moreover, the status of the TP53 gene in leukaemia is not insignificant. Mutations of the TP53 gene occur in more than 50% of all cancers, leading to increased metastasis and an overall poor prognosis[38]^,[39]. The p53 protein encoded by this gene plays a pivotal role in controlling cell division or cell fate when damage is detected. […] Therefore, interaction between the signalling network of the BCR-ABL pathway and p53 often results in an impairment of p53 function and survival[43]^,[44]. […] Selectivity studies were performed on normal human fibroblast – NHDF cell line.
(§2) M. Rusin from the Maria Sklodowska-Curie Memorial Cancer Centre and Institute of Oncology in Gliwice, Poland. […] G. Kramer-Marek from the Institute of Cancer Research in London, United Kingdom. The human suspension chronic myeloids leukaemia cell line K562 and the pancreatic ductal adenocarcinoma cell line PANC-1 were purchased from Merck. The normal human dermal fibroblasts cell line NHDF were obtained from PromoCell. All adherent cancer cell lines were cultured in Dulbecco’s Modified Eagle’s medium (DMEM) supplemented with 10% heat-inactivated foetal bovine serum – FBS (all from Merck). […] Each complete medium contained a mixture of two antibiotics - penicillin and streptomycin (1% v/v; Gibco). Cell lines were cultured at 37 °C with 5% CO2 humidified atmosphere.
(§3) The assay was carried out after 72 h of incubation with different concentrations of the tested compounds. Then DMEM without phenol red was added to each well with CellTiter 96®AQueous One Solution-MTS (Promega) solution and incubated for 1 h or 3 h (PANC-1) at 37 °C. The optical densities of the samples were measured at 490 nm using a multi-plate reader (Synergy 4, BioTek). […] Each compound was tested in triplicate in a single experiment and each experiment was performed three or four times.

The subject of another experiment is K562. The description is as above. It is filed as cell-based, human. As to conditions: Homo sapiens, K562; 72 h, MTS.
Source text: as §1, §2, §3

A further experiment deals with PANC-1. Described as above. It counts as cell-based, human. The settings on record: Homo sapiens, PANC-1; 72 h, MTS.
Source text: as §1, §2, §3

The subject of another experiment is HCT 116 p53+/+. The experiment is described as above. It counts as cell-based, human. As to conditions: Homo sapiens, HCT-116; 72 h, MTS.
Source text: as §1, §2, §3

A further experiment concerns MCF-7. The description is as above. It is filed as cell-based, human. As to conditions: Homo sapiens, MCF7; 72 h, MTS.
Source text: as §1, §2, §3

Another experiment deals with T1, CSK (Homo sapiens, UniProt P41240).
T1 construct: purchased Promega
T1 sequence (P41240 whole entry): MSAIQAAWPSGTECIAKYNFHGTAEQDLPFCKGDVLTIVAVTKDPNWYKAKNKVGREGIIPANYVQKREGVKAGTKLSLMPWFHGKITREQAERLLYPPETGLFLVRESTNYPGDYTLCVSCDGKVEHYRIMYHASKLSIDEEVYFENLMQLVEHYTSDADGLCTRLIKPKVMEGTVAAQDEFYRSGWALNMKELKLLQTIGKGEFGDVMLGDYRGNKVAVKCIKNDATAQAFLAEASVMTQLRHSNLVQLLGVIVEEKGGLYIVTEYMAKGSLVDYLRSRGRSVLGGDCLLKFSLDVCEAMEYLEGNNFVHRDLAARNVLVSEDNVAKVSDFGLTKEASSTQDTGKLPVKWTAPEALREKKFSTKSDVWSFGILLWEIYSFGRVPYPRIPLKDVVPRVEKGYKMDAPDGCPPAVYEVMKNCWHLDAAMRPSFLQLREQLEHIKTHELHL
Description: Tyrosine kinase assay (Kinase Selectivity System TK-2, ADP-Glo). It counts as biochemical. As to conditions: 1 h incubation, mean ± SD of four experiments. Background: ADP-Glo first removes unused ATP, then detects ADP through luciferase.

The target in a further experiment is T2, Lyn B (Homo sapiens, UniProt P07948).
T2 construct: purchased Promega
T2 sequence (P07948 1-491 isoform P07948-2): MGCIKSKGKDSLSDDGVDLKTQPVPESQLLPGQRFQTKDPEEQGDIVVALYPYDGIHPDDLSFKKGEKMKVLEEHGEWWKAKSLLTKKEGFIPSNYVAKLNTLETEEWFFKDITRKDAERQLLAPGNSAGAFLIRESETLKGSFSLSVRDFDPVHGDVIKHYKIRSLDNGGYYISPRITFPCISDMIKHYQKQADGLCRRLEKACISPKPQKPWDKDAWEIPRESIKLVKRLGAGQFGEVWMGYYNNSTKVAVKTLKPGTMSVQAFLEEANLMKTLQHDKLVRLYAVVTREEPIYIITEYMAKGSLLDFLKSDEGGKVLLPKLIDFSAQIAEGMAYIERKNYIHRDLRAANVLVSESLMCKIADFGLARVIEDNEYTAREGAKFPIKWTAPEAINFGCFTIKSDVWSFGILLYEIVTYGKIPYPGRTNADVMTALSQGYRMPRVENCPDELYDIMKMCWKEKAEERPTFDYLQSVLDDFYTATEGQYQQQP
Described as above. It counts as biochemical. As to conditions: 1 h incubation, mean ± SD of four experiments.

In a further experiment the target is T3, ABL (Homo sapiens, UniProt P00519).
T3 construct: purchased Promega
T3 sequence (P00519 whole entry): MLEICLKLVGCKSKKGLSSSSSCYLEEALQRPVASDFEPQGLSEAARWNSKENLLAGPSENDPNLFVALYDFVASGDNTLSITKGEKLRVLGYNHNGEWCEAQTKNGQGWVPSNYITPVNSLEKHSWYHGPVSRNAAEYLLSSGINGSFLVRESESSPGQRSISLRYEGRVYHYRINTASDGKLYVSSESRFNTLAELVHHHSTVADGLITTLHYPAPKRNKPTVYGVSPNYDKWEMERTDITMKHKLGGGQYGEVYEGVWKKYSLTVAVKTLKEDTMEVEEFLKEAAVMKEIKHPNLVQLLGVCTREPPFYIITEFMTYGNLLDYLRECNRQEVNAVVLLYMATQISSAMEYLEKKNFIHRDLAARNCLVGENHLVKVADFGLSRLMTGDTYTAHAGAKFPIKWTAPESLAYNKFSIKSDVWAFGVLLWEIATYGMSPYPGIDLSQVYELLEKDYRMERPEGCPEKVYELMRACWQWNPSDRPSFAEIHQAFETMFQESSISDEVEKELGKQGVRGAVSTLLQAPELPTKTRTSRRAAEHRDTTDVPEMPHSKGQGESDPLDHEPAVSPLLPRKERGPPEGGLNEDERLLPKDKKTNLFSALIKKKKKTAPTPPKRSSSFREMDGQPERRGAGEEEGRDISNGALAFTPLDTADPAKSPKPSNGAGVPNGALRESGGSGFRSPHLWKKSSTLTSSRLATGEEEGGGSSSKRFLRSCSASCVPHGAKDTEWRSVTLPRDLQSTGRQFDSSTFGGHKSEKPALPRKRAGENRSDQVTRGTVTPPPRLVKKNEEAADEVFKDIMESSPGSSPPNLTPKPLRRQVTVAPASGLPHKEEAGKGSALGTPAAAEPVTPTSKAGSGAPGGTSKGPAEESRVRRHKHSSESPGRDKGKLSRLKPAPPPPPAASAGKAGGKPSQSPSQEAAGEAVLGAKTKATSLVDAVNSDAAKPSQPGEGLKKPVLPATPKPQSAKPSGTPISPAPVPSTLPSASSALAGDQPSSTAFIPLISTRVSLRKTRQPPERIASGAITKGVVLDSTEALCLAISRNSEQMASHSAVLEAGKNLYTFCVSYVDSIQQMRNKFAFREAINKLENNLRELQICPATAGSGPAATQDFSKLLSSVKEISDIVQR
The description is as above. It is filed as biochemical. As to conditions: 1 h incubation, mean ± SD of four experiments.

The target of another experiment is T4, Fyn A (Homo sapiens, UniProt P06241).
T4 construct: purchased Promega
T4 sequence (P06241 whole entry): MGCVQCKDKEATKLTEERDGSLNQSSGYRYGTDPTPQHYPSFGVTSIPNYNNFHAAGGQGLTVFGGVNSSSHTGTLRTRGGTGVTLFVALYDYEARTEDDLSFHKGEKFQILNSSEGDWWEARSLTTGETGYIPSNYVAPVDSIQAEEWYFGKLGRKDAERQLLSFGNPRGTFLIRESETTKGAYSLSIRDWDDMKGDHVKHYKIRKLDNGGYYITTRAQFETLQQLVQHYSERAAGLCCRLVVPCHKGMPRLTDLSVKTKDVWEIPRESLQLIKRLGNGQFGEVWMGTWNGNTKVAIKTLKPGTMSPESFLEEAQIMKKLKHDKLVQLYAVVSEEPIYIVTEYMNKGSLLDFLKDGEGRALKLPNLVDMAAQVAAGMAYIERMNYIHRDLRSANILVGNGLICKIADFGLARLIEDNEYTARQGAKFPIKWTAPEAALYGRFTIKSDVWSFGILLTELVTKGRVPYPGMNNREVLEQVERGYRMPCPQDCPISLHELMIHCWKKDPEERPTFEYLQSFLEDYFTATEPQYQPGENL
The experiment is described as above. It counts as biochemical. As to conditions: 1 h incubation, mean ± SD of four experiments. The text has this:
All newly synthesised derivatives were screened for their inhibitory potential towards eight non-receptor tyrosine kinases, such as ABL, BTK, BRK and Src family kinases, such as CSK, Lyn, Lck, Fyn and Src. […] To facilitate the analysis of the structure and enzymatic activity, all tested compounds were divided into four subgroups based on the main structural scaffolds (the general structure of each group is shown in the second column of Table 1). Series A, B, and C were subdivided according to the S^4-aryl substituent, while D represents the different styryl groups at the C^2-quinazoline position.
Herein, we used a kinase assay that contained fully expressed kinases with their regulatory domains, which are responsible for autoinhibition. The proteins are present in their unphosphorylated form and the procedure required supplementation with ATP. Importantly, autophosphorylation of ABL is dependent on […] concentration of the protein. Thus, our experimental conditions reflect the cellular process to be simulated. The luminescence signal detected after one hour of incubation with a peptide substrate was a measure of inhibition. Under these conditions, the question of whether the inhibitors tested bind to the ortho or allosteric site of the protein could be answered. […] To test this hypothesis, further molecular docking experiments were performed to more precisely determine the binding of the tested compounds to the ABL kinase.
To determine the inhibition of non-receptor tyrosine kinases, assays were performed using the kinase selectivity system TK-2 and the ADP-Glo Kinase Assay (both from Promega). The protocol was previously developed by our group and described in reports[12]^,[36]. Experiments were performed at least four times. Data are expressed as percentage of tyrosine kinase inhibitory activity after treatment with the derivatives tested.

The next experiment has as its target T5, Lck (Homo sapiens, UniProt P06239).
T5 construct: purchased Promega
The description is as above. It counts as biochemical. The settings on record: 1 h incubation, mean ± SD of four experiments.

In another experiment the target is T6, Src (Homo sapiens, UniProt P12931).
T6 construct: purchased Promega
T6 sequence (P12931 whole entry): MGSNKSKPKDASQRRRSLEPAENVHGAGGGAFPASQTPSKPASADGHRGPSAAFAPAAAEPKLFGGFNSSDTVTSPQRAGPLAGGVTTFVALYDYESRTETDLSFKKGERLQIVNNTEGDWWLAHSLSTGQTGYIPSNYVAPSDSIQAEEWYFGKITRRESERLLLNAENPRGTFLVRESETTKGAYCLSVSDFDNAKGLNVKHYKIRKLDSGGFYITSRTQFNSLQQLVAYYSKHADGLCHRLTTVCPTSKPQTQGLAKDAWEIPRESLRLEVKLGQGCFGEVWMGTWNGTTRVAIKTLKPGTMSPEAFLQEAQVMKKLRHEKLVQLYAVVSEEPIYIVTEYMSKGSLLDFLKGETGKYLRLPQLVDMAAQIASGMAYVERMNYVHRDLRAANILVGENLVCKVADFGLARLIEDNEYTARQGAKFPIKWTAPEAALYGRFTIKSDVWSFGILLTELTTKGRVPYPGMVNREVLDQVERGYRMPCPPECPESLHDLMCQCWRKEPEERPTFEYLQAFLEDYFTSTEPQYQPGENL
The experiment is described as above. As to conditions: 1 h incubation, mean ± SD of four experiments. It is filed as biochemical.

The subject of a further experiment is HCT 116 p53−/−. The experiment can be described thus: Cytotoxicity studies (MTS), antiproliferative activity. It counts as cell-based, human. The settings on record: Homo sapiens, HCT-116; 72 h, MTS.
Source text: as §1, §2, §3

For the next experiment, the target named is T7, BTK (Homo sapiens, UniProt Q06187).
T7 construct: purchased Promega
T7 sequence (Q06187 whole entry): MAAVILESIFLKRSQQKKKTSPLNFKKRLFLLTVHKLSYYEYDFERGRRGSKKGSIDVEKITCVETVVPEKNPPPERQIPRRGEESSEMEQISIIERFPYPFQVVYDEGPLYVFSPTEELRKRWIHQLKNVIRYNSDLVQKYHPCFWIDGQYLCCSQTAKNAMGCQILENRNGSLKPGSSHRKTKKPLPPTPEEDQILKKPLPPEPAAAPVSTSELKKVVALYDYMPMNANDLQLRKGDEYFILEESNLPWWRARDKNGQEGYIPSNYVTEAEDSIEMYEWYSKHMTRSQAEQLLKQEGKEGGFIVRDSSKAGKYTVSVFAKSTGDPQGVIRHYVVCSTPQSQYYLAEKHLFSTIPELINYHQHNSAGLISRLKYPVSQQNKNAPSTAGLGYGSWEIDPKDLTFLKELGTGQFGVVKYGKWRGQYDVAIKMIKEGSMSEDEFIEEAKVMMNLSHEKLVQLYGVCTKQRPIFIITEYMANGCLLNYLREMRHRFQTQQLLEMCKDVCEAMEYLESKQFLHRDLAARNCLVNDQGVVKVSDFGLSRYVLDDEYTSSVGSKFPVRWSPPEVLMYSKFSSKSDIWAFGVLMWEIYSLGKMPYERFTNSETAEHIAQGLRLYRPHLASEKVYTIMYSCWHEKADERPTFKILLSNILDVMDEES
The experiment can be described thus: Tyrosine kinase assay (Kinase Selectivity System TK-2, ADP-Glo). It counts as biochemical. As to conditions: 1 h incubation, mean ± SD of four experiments.

A further experiment deals with T8, BRK (Homo sapiens, UniProt Q13882).
T8 construct: purchased Promega
T8 sequence (Q13882 whole entry): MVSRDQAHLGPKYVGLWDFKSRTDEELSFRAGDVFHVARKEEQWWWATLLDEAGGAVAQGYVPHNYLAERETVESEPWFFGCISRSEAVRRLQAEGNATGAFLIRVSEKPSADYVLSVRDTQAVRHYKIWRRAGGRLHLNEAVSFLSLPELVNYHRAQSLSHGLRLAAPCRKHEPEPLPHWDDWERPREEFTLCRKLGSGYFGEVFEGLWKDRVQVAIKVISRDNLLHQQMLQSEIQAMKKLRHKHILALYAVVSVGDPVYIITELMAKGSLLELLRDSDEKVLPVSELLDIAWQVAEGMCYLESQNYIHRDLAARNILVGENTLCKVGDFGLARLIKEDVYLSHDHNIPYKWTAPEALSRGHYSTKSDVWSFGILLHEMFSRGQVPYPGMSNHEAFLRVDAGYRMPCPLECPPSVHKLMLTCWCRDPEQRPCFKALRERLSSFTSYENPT
Described as above. The settings on record: 1 h incubation, mean ± SD of four experiments. It counts as biochemical.

A further experiment deals with A549. Description: Cytotoxicity studies (MTS), antiproliferative activity. It is filed as cell-based, human. As to conditions: Homo sapiens, A549; 72 h, MTS.
Source text: as §1, §2, §3

T5 sequence (P06239 whole entry): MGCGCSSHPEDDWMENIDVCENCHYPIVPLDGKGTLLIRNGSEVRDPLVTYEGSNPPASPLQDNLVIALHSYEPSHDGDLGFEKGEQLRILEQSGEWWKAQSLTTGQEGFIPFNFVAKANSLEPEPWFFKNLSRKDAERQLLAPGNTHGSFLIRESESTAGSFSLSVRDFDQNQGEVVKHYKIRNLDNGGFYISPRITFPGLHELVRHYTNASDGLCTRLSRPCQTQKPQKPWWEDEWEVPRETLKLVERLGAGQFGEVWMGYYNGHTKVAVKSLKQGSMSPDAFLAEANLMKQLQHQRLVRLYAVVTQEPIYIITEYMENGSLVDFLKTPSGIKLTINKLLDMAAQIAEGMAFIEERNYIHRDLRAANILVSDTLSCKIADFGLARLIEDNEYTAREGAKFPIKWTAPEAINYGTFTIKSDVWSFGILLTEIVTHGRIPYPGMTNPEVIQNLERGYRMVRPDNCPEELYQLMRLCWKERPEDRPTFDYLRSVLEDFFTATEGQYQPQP

For the molecule `COc1ccccc1/C=C/c1nc(Sc2ccccc2F)c2ccccc2n1` [IS5, 2-[(E)-2–(2-methoxyphenyl)ethenyl]-4–(2-fluorophenylthio)quinazoline], the IC50 in the experiment on U-251, in the experiment with K562, in the experiment with PANC-1, with HCT 116 p53+/+ and in the experiment with MCF-7 was over 25 µM throughout. The inhibition at 0.5 µM was 23.1 ± 5.24% against CSK; 7.67 ± 3.28% on Lyn B; 18.5 ± 1.59% against ABL; 3.77 ± 1.21% on Fyn A; 37 ± 7.87% against Lck; 28.2 ± 5.41% against Src.

For `COc1ccccc1/C=C/c1nc(Sc2cc(Cl)ccc2Cl)c2ccccc2n1` [IS3, 2-[(E)-2–(2-methoxyphenyl)ethenyl]-4–(2,5-dichlorophenylthio)quinazoline], the IC50 in the experiment on HCT 116 p53−/−, in the experiment on K562, in the experiment on HCT 116 p53+/+ and in the experiment with MCF-7 was over 25 µM in each case. For the same molecule, the inhibition at 0.5 µM came to 31.6 ± 2.38% on BTK; 35 ± 1.11% at CSK; 26.2 ± 1.55% on Lyn B; 4.02 ± 3.58% at ABL; 60 ± 2.85% at Fyn A; 13.4 ± 5.58% at Lck. The inhibition at 0.5 µM at Src and at BRK was 0% in each case.

For the molecule `Cc1nc(Nc2ncc(C(=O)Nc3c(C)cccc3Cl)s2)cc(N2CCN(CCO)CC2)n1` [Dasatinib, dasatinib, reference compound], the inhibition at 0.5 µM is 94.2 ± 1.28% against CSK, 97.5 ± 1.49% against Lyn B and 92.3 ± 2.55% on Fyn A.

For `COc1ccc(/C=C/c2nc(Sc3ccccc3Cl)c3ccccc3n2)cc1` [IS18, 2-[(E)-2–(4-methoxyphenyl)ethenyl]-4–(2-chlorophenylthio)quinazoline], the IC50 in the experiment with U-251 is 10.3 ± 0.818 µM; with K562, over 25 µM; in the experiment with PANC-1 it was 12 ± 1.2 µM; with HCT 116 p53+/+ it was 11.1 ± 1.37 µM; with MCF-7, 10.6 ± 1.38 µM. Besides, the inhibition at 0.5 µM against CSK was 0%; against Lyn B, 13.8 ± 1%; on ABL, 11.7 ± 4.03%; against Fyn A it was 17.3 ± 4.47%; at Lck it was 66.5 ± 7.49%; against Src it was 26.1 ± 6.03%.

For the molecule `COc1ccccc1/C=C/c1nc(Sc2ccccc2C(F)(F)F)c2ccccc2n1` [IS6, 2-[(E)-2–(2-methoxyphenyl)ethenyl]-4-[2-(trifluoromethyl)phenylthio]quinazoline], the IC50 with U-251, with K562, with PANC-1, in the experiment on HCT 116 p53+/+ and with MCF-7 was over 25 µM throughout. Moreover, the inhibition at 0.5 µM at CSK turned out to be 0%; against Lyn B it was 1.39 ± 0.41%; on ABL it was 1.18 ± 0.17%; at Fyn A, 26.1 ± 8.39%; at Lck, 0%; against Src it was 43.8 ± 9.07%.

In the case of `COc1ccccc1/C=C/c1nc(Sc2ccccc2Cl)c2ccc(Cl)cc2n1` [IS12, 2-[(E)-2–(2-methoxyphenyl)ethenyl]-7-chloro-4–(2-chlorophenylthio)quinazoline], the IC50 in the experiment on HCT 116 p53−/−, with A549, with U-251, in the experiment on K562, in the experiment with HCT 116 p53+/+ and in the experiment with MCF-7 was over 25 µM throughout. Moreover, the inhibition at 0.5 µM against BTK turned out to be 15.4 ± 4.19%; against CSK it was 0%; on Lyn B, 0%; against ABL, 0%; on Fyn A it was 0%; at Lck it was 0%. Also, the inhibition at 0.5 µM on Src and against BRK was 0% in each case.

Take `COc1cccc(Sc2nc(/C=C/c3ccccc3OC)nc3cc(Cl)ccc23)c1` [IS13, 2-[(E)-2–(2-methoxyphenyl)ethenyl]-7-chloro-4–(3-methoxyphenylthio)quinazoline]: the IC50 with HCT 116 p53−/−, in the experiment with A549, in the experiment with U-251, in the experiment with K562, in the experiment with HCT 116 p53+/+ and in the experiment on MCF-7 was over 25 µM each time. Further, the inhibition at 0.5 µM against BTK, at CSK, at Lyn B, against ABL, against Fyn A and on Lck was 0% throughout. In addition, the inhibition at 0.5 µM at Src and against BRK was 0% throughout.

For the molecule `COc1ccccc1/C=C/c1nc(Sc2cccc(Cl)c2)c2ccccc2n1` [IS2, 2-[(E)-2–(2-methoxyphenyl)ethenyl]-4–(3-chlorophenylthio)quinazoline], the IC50 in the experiment with U-251 was over 25 µM; with K562 it was 24.8 ± 2.45 µM; in the experiment on PANC-1, 25.1 ± 1.44 µM; with HCT 116 p53+/+ it was 23.8 ± 5.32 µM; in the experiment on MCF-7, 19.7 ± 1.13 µM. Further, the inhibition at 0.5 µM against CSK was 62.1 ± 4.45%; against Lyn B it was 38.4 ± 8.58%; at ABL it was 25.2 ± 3.69%; at Fyn A it was 52%; at Lck, about 74%; against Src, 58%. Moreover, the “Inhibition of tyrosine kinase activity [%] Fyn A” value at Fyn A (0.5 μM) amounted to 52.32 ± 7.04%. At Lck (0.5 μM), the “Inhibition of tyrosine kinase activity [%] Lck” value is 73.92 ± 9.72%. In addition, at Src (0.5 μM), the “Inhibition of tyrosine kinase activity [%] Src” value was found to be 58.56 ± 4.80%.

For the molecule `COc1ccccc1/C=C/c1nc(Sc2ccccn2)c2ccc(Cl)cc2n1` [IS14, 2-[(E)-2–(2-methoxyphenyl)ethenyl]-7-chloro-4-(pyrid-2-ylthio)quinazoline], the IC50 with U-251 is over 25 µM; with K562 it was 21.6 ± 2.1 µM; in the experiment on PANC-1, over 25 µM; in the experiment on HCT 116 p53+/+ it was over 25 µM; in the experiment on MCF-7, over 25 µM. For the same molecule, the inhibition at 0.5 µM against CSK stood at 0%; against Lyn B it was 0%; on ABL it was 7.64 ± 0.7%; against Fyn A, 16 ± 7.94%; against Lck, 14.8 ± 6.02%; against Src it was 40.5 ± 9.17%.

The term IC50 denotes the point on the concentration scale where inhibition reaches its midpoint. One may read the inhibition as the percentage by which the read-out fell short of the control. A lower inhibition goes with little suppression.
